In data set [1] the target is T1, Free fatty acid receptor 1 (Homo sapiens, UniProt O14842). As to the kind of experiment: Agonist activity at GPR40 expressed in CHO cells after 20 seconds by aequorin bioluminescence assay in presence of 0.1 % human serum. The data set is classed as functional, cell-based.
Data set [2] deals with T1, Free fatty acid receptor 1. As to the kind of experiment: Agonist activity at GPR40 expressed in CHO cells assessed as intrinsic efficacy after 20 seconds by aequorin bioluminescence assay in presence of 0.1 % human serum relative to AM-1638. The data set is classed as functional, cell-based.
Data set [3] addresses T1, Free fatty acid receptor 1. Nature of the data set: Agonist activity at GPR40 expressed in CHO cells after 20 seconds by aequorin bioluminescence assay in presence of 100 % human serum. The data set is classed as functional, cell-based.
The nature of data set [4]: Clearance in cynomolgus monkey at 2 mg/kg, po and 0.5 mg/kg, iv. The note with it: in vivo. The data set is classed as ADME, organism-based, Macaca fascicularis.
The nature of data set [5]: Half life in rat at 0.5 mg/kg, iv. The data set is classed as ADME, organism-based. Also noted: dose 0.5 mg/kg, route intravenous. The conditions noted are these: in vivo.
Data set [6] has as its system Mus musculus. Nature of the data set: Antidiabetic activity in DIO BDF mouse model assessed as increase in plasma insulin level at 60 mg/kg, po administered 1 hr prior glucose-challenge challenge measured after 1 hr by ELISA. The data set is classed as functional, organism-based. Further details: dose 60 mg/kg.
Data set [7] in a line: Cmax in mouse at 5 mg/kg, po. Further details: dose 5 mg/kg, route oral. The conditions noted are these: in vivo. The data set is classed as ADME, organism-based.
Data set [8] in a line: Half life in cynomolgus monkey at 0.5 mg/kg, iv. Also noted: dose 0.5 mg/kg, route intravenous. Format: ADME, organism-based, Macaca fascicularis. The note with it: in vivo.
Data set [9] can be described thus: Cmax in cynomolgus monkey at 2 mg/kg, po. Format: ADME, organism-based, Macaca fascicularis. Further details: dose 2 mg/kg, route oral. The conditions noted are these: in vivo.
The nature of data set [10]: Oral bioavailability in mouse at 5 mg/kg. Format: ADME, organism-based. The conditions noted are these: in vivo.
For data set [11], the system named is Mus musculus. Nature of the data set: Antidiabetic activity in DIO BDF mouse model assessed as increase in insulin AUC at 60 mg/kg, po administered 1 hr prior glucose-challenge challenge measured after 1 hr by ELISA. Further details: dose 60 mg/kg. Format: functional, organism-based.
The nature of data set [12]: Clearance in mouse at 5 mg/kg, po and 1 mg/kg, iv. The conditions noted are these: in vivo. Format: ADME, organism-based.
Data set [13] is described as follows: Oral bioavailability in rat at 2 mg/kg. The note with it: in vivo. Format: ADME, organism-based.
Data set [14] is described as follows: Half life in mouse at 1 mg/kg, iv. Further details: dose 1 mg/kg, route intravenous. The data set is classed as ADME, organism-based. The note with it: in vivo.
Data set [15] is described as follows: Cmax in rat at 2 mg/kg, po. The note with it: in vivo. Further details: dose 2 mg/kg, route oral. The data set is classed as ADME, organism-based.
Data set [16] can be described thus: Tmax in cynomolgus monkey at 2 mg/kg, po and 0.5 mg/kg, iv. The data set is classed as ADME, organism-based, Macaca fascicularis. The conditions noted are these: in vivo.
Data set [17] concerns Mus musculus. As to the kind of experiment: Antidiabetic activity in DIO BDF mouse model assessed as improvement in glucose-challenge AUC(0 to 60 mins) at 60 mg/kg, po administered 1 hr prior glucose-challenge challenge measured after 1 hr by OGTT. Format: functional.
Data set [18] in a line: Clearance in rat at 2 mg/kg, po and 0.5 mg/kg, iv. Format: ADME, organism-based. The conditions noted are these: in vivo.
Data set [19] in a line: Oral bioavailability in cynomolgus monkey at 2 mg/kg. Format: ADME, organism-based, Macaca fascicularis. The note with it: in vivo.
Data set [20] is described as follows: Tmax in mouse at 5 mg/kg, po and 1 mg/kg, iv. The data set is classed as ADME, organism-based. The note with it: in vivo.
The nature of data set [21]: Tmax in rat at 2 mg/kg, po and 0.5 mg/kg, iv. Format: ADME, organism-based. The conditions noted are these: in vivo.
The subject of data set [22] is Mus musculus. Nature of the data set: Antidiabetic activity in DIO BDF mouse model assessed as reduction in blood glucose-challenge excursion at 60 mg/kg, po administered 1 hr prior glucose-challenge challenge measured after 1 hr by OGTT ( Rvb = 462 mg/dl ). The data set is classed as functional.

The source made the active and inactive calls. The calls are words filed in the database; no cut-off is given here.

T1 sequence (O14842 whole entry): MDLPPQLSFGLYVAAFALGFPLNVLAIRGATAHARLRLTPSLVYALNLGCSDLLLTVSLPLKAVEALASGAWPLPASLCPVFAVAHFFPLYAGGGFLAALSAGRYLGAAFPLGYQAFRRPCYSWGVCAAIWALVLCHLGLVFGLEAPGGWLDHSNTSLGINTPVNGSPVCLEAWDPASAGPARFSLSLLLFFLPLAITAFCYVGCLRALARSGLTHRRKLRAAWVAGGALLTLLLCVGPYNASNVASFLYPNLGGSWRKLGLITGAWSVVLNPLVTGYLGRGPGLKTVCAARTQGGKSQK

Take `COc1ccc(F)c(-c2ccc(COc3cccc(CCC(=O)O)c3)cc2C(C)(C)C)c1`: the concentration giving a half-maximal response (EC50) in data set [1] was 0.9 µM. In addition, the Efficacy in data set [2] was determined as 100%.
The corresponding values for `COc1ccc(F)c(-c2ccc(COc3cccc([C@@H](CC(=O)O)C4CCCC4)c3)cc2C(C)(C)C)c1` are 1.31 µM and 59%.
On to `COc1ccc(F)c(-c2ccc(COc3cccc([C@@H](CC(=O)O)C4CC4)c3)cc2C(C)(C)C)c1`, for which the figures for the EC50 in data set [1] and in data set [3] were 0.37 µM and 1.9 µM, respectively. Besides, the Efficacy in data set [2] turned out to be 103%.
`CC/C=C\C/C=C\C/C=C\C/C=C\C/C=C\C/C=C\CCC(=O)O` [DOCONEXENT]: the concentration for a half-maximal effect (EC50) in data set [1] was found to be 36 µM. For the same molecule, the Efficacy in data set [2] stood at 67%.
The like results for `CC#C[C@@H](CC(=O)O)c1ccc(OCc2ccc(-c3cccc(OC)c3)cc2)cc1` were, in that order, 0.65 µM and 47%.
Turning to `COc1ccc(F)c(-c2ccc(COc3cccc([C@@H](CC(=O)O)C4CC4)c3)cc2C2=CCCC2(C)C)c1`, the clearance was 13.5 mL/min/kg in data set [4], 3 mL/min/kg in data set [12] and 15.2 mL/min/kg in data set [18]. Besides, the half-life in data set [5] is 1.8 h; in data set [8] it was 2.1 h; in [14], 2 h. In addition, the outcome in the data set on Mus musculus [6] and with Mus musculus [11] was Active. The Cmax was determined as 14 µM in data set [7], 5.1 µM in data set [9] and 3.6 µM in data set [15]. In addition, the bioavailability in data set [10] was > 100%; in data set [13], 72%; in data set [19], 71%. Further, the Tmax in data set [16] turned out to be 2 h; in [20], 1 h; in data set [21] it was 3.5 h. In addition, the Activity stood at 46% with Mus musculus [17] and 204 mg/dL with Mus musculus [22]. The EC50 in [3] was found to be 0.71 µM.
Regarding `CCC[C@H](CC(=O)O)c1cccc(OCc2ccc(-c3cc(OC)ccc3F)c(C(C)(C)C)c2)c1`, the concentration giving a half-maximal response (EC50) in data set [1] came to 0.69 µM. For the same molecule, the Efficacy in data set [2] is 94%.
The like results for `CC#C[C@H](CC(=O)O)c1ccc(OCc2ccc(-c3cccc(OC)c3)cc2)cc1` were, in that order, 4 µM and 99%.
Consider `COc1ccc(F)c(-c2ccc(COc3ccc(CCC(=O)O)cc3)cc2)c1`, for which the EC50 in [1] was 1.9 µM. The Efficacy in data set [2] is 96%.
The corresponding values for `CC[C@H](CC(=O)O)c1cccc(OCc2ccc(-c3cc(OC)ccc3F)c(C(C)(C)C)c2)c1` are 0.68 µM and 110%.
The like results for `COc1ccc(F)c(-c2ccc(COc3cccc([C@@H](CC(=O)O)C4CCCCC4)c3)cc2C(C)(C)C)c1` were, in that order, 2.1 µM and 41%.
On to `CC#C[C@@H](CC(=O)O)c1ccc(OCc2cccc(-c3ccc(C(F)(F)F)cc3)c2)cc1`, for which the outcome in the data set on Mus musculus [6] was inactive. The Activity in the data set with Mus musculus [17] was 34%; in the data set on Mus musculus [22] it was 317 mg/dL.
Take `CC#C[C@H](CC(=O)O)c1ccc(OCc2ccc(-c3cc(OC)ccc3F)cc2)cc1`: in data set [1], the concentration for a half-maximal effect (EC50) turned out to be 2.3 µM. Further, in data set [2], the Efficacy stood at 97%.
The corresponding values for `COc1ccc(F)c(-c2ccc(COc3cccc([C@@H](CC(=O)O)C(C)C)c3)cc2C(C)(C)C)c1` are 2.2 µM and 86%.
Regarding `COc1ccc(F)c(-c2ccc(COc3cccc([C@H](CC(=O)O)C4CC4)c3)cc2C2=CCCC2(C)C)c1`, the figures for the concentration giving a half-maximal response (EC50) in data set [1] and in data set [3] were 1.1 µM and 34 µM, respectively. Also, in data set [2], the Efficacy is 76%.
Take `COc1ccc(F)c(-c2ccc(COc3cccc([C@H](C)CC(=O)O)c3)cc2C(C)(C)C)c1`: the EC50 in data set [1] was found to be 0.77 µM. Besides, the Efficacy in [2] turned out to be 107%.
As to `COc1ccc(F)c(-c2ccc(COc3cccc([C@@H](CC(=O)O)C(F)(F)F)c3)cc2C(C)(C)C)c1`, the 50% effective concentration (EC50) in [1] is 2.1 µM. Further, the Efficacy in data set [2] stood at 111%.
The corresponding values for `COc1ccc(F)c(-c2ccc(COc3cccc([C@@H](CC(=O)O)C4CCC4)c3)cc2C(C)(C)C)c1` are 0.42 µM and 106%.
The like results for `CC#CC(CC(=O)O)c1ccc(OCc2ccc(-c3ccccc3)cc2)cc1` (racemic) were, in that order, 7.7 µM and 105%.
The like results for `COc1ccc(F)c(-c2ccc(COc3cccc(CCC(=O)O)c3)cc2)c1` were, in that order, 1.2 µM and 104%.
For the molecule `COc1ccc(F)c(-c2ccc(COc3cccc([C@@H](CC(=O)O)c4ccccc4)c3)cc2C(C)(C)C)c1`, in data set [1], the EC50 stood at 1.2 µM. In data set [2], the Efficacy was determined as 80%.
On to `COc1ccc(F)c(-c2ccc(COc3cccc([C@@H](CC(=O)O)C4CC4)c3)cc2)c1`, for which the EC50 in data set [1] stood at 0.48 µM; in data set [3], 38 µM. For the same molecule, the Efficacy in data set [2] worked out at 107%.
As to `CC#CC(CC(=O)O)c1ccc(OCc2ccc(-c3cccc(OC)c3)cc2)cc1` (racemic), the EC50 in data set [1] is 2.3 µM. In data set [2], the Efficacy was 98%.

(Values after ChEMBL document CHEMBL2150898, “Discovery of AM-1638: A Potent and Orally Bioavailable GPR40/FFA1 Full Agonist” (ACS Med Chem Lett, 2012).)
